Test system: ES cell line that constitutively over-expressed the transcription factor MyoD
Format: cell-based
Settings: for effect on Pax3 expression: continuous treatment during differentiation; for effect on MyoG (myogenin) expression: continuous treatment for 7 days, high or low serum; for effect on MyoG (myogenin) expression / effect on MyoG expression under low serum conditions: MyoG measured on Day 7; for effect on MyoG expression under low serum conditions: low serum (2% HS+Insulin)
Method: Time courses of differentiation were run for 7 days similarly to the previous growth factor withdrawal experiments. MyoD was induced at Day −1, and LIF was removed at Day 0. Cells were kept in either high serum (15% FBS) or low serum (2% HS+Insulin) media throughout the time course. Drug treatments were applied continuously at the designated concentrations for the entire duration of the time course, with daily media change. mRNA expression levels were measured by qRT-PCR. […] All measurements are relative to a DMSO control for the specific condition (i.e. low serum values are still higher than in high serum). L=lethal; drug had strong anti-survival effects so no data was collected. Error bars indicate S.E.M. (n=2).
Perturbations were made both under high and low serum conditions and were extended throughout the time course of differentiation. LY294002 is a potent broad inhibitor of phosphoinositide-3-kinases (PI3Ks), and when applied continuously to ES cells over 7 days induced a significant 2.7 fold increase in Pax3 mRNA expression (FIG. 4). This increase was observed both in high serum and low serum media. […] Myc drives cell cycle progression and growth. […] Both are indirect inhibitors of Myc activity; as yet there are no direct pharmacologic inhibitors of the Myc protein.
The effects of inhibiting cyclin-dependent kinases (kinases that are more centrally involved in cell cycle control) and MAP kinase, which very often is involved in cell cycle regulation, were also examined. Roscovitine is a broad CDK inhibitor that blocks a number of family members, including CDK1, CDK2, and CDK5. After continuous treatment throughout the 7 days of differentiation in the time course, roscovitine had no effect on Pax3 expression (FIG. 4). It also had little effect on the later expression of MyoG, either under high or low serum conditions. […] However, the MAPK inhibitor PD98059, which blocks MEK1/2, had no effect on Pax3 and induced MyoG only under low serum conditions (FIG. 4 bottom). The protein CDK inhibitor p21, which is much more specific than roscovitine, blocks CDK2 and prevents entry into S-phase. In ES cells p21 is expressed at low levels, but gradually increases during the course of ES cell differentiation (13). An mES cell line that constitutively overexpresses the p21 protein bicistronically with a mCherry tag (fused to the C-terminus with a 2A peptide) was developed. […] Thus, within the set of cell cycle inhibitors examined, stage-specific and condition-specific effects on gene expression were observed.
ES culture and differentiation. The ES cells contain MyoD (and associated puromycin resistance marker) expressed from a EF1alpha promoter (5). MyoD could be expressed once a loxP segment inserted between the promoter and transgene was excised by a cre recombinase fused to the estrogen receptor. ES cells were cultured in LIF and standard conditions containing 15% FBS, non-essential amino acids, L-glutamine, penicillin/streptomycin, and beta-mercaptoethanol. To induce MyoD, cells were treated for 24 hrs with 1 μM 4OHT (Sigma) in ES media. Reduced serum media consisted of DMEM and 2% horse serum (Invitrogen) plus 10 μg/ml insulin (to maintain cell survival)(Sigma) with sodium pyruvate and penicillin/streptomycin. During differentiation, cells were treated with 1 μg/ml puromycin continuously to select for cells which maintained MyoD expression. N2B27 components/supplements and Knock-out serum replacement were purchased from Invitrogen. LIF was used at a 1000 U/ml and Bmp4 at 10 ng/ml.
Drugs. The PI3K inhibitor LY294002, Roscovitine, the MEK1/2 inhibitor PD98059, and 10058-F4 were purchased from Sigma. The E2F inhibitor HLM006474 was purchased from Millipore. PD0332991 was purchased from SelleckChem. JQ1 was purchased from ApexBio.
RNA isolation and RT-PCR. RNA was isolated using RNAeasy plus kit (Qiagen). Reverse transcription was performed using iScript™ cDNA synthesis (Bio-rad). […]

[1] = Pax3 measured on Day 3, relative to DMSO control

Molecule | effect on Pax3 expression [1] | effect on MyoG (myogenin) expression | effect on MyoG expression under low serum conditions | cell survival on continuing treatment | increase in Pax3 mRNA expression (applied continuously over 7 days, observed both in high serum and low serum media, relative to DMSO control, Pax3 measured on Day 3) [fold]
CCOc1ccc(C(Nc2ccccn2)c2ccc3ccc(C)nc3c2O)cc1C (stereo not shown) [HLM006474] | induced Pax3 | suppressed MyoG expression |  |  | 
CC[C@H](CO)Nc1nc(NCc2ccccc2)c2ncn(C(C)C)c2n1 [roscovitine, Roscovitine] | no effect | little effect |  |  | 
CC(=O)c1c(C)c2cnc(Nc3ccc(N4CCNCC4)cn3)nc2n(C2CCCC2)c1=O [PD0332991] | lack of effect | lack of effect |  |  | 
COc1cccc(-c2cc(=O)c3ccccc3o2)c1N [PD98059] | no effect |  | induced MyoG |  | 
O=c1cc(N2CCOCC2)oc2c(-c3ccccc3)cccc12 [LY294002] |  |  |  | cell death | 2.7
CCc1ccc(/C=C2/SC(=S)NC2=O)cc1 [10058-F4] | suppressive effects | suppressive effects |  |  | 
Cc1sc2c(c1C)C(c1ccc(Cl)cc1)=N[C@@H](CC(=O)OC(C)(C)C)c1nnc(C)n1-2 [JQ1] | an increase in Pax3 early expression | later suppression of MyoG expression |  |  | 
p21: protein CDK inhibitor, blocks CDK2; constitutively overexpressed in an mES cell line with a mCherry tag (protein, UniProt P39689 2-159, looked up, mCherry tag) Cyclin-dependent kinase …: SNPGDVRPVPHRSKVCRCLFGPVDSEQLRRDCDALMAGCLQEARERWNFDFVTETPLEGNFVWERVRSLGLPKVYLSPGSRSRDDLGGDKRPSTSSALLQGPAPEDHVALSLSCTLVSERPEDSPGGPGTSQGRKRRQTSLTDFYHSKRRLVFCKRKP | no effect |  | upregulated MyoG |  | 

From US10767162B2, “Methods for differentiation” (PRESIDENT AND FELLOWS OF HARVARD COLLEGE, priority 2014, dated 2020)
